From US20110256241A1, “METHODS AND COMPOSITIONS FOR THE TREATMENT OF CANCER” (TRASLATIONAL CANCER DRUGS PHARMA, S.L., priority 2008, published 2011) come the findings set out here.

The subject of one test is H460 cells. The test is described as follows: Affymetrix gene expression analysis of 5-FU metabolization pathway. The class given is cell-based, human. On the set-up: key to RRM2 (Ribonucleotide Reductase) gene expression / TYMS (Thymidylate synthetase) gene expression / DUT (Deoxyuridine triphosphatase) gene expression: Signal Log Ratio, base 2 (1.0 = 2-fold increase, 0 = no change). Here is the method:
The RNAs from the biopsies selected were isolated for microarrays and QT-PCR, using RNeasy Mini Kit (QIAGEN, Hilden, Germany) following the instructions of the manufactures. Samples were prepared and the array hybridized according to the Affymetrix GeneChip Expression Analysis Technical Manual. Hybridization to Affymetrix U133plus2 GeneChips (54,614 probe sets, representing 47,000 transcripts), staining, washing and scanning procedures were carried out at the Genomic Facility in the National Center of Biotechnology (Madrid, Spain) as described in www.affymetrix.com (Affymetrix, Santa Clara, Calif.). The Signal Log Ratio estimates the magnitude and direction of change of a transcript. The log scale used is base 2, thus a Signal Log Ratio of 1.0 indicates an increase of the transcript level by 2 fold and −1.0 indicates a decrease by 2 fold. A Signal Log Ratio of zero would indicate no change.
With the aim of further investigating the mechanism of ChoKIs sensitization to the antitumoral effect of 5-FU, a gene expression analysis of the 5-FU-metabolisation pathway was performed in H460 cells treated at different times with MN58b and RSM-932A using affymetrix technology.

The subject of test [1] is Primary BEC (human primary bronchial epithelial cells). As to the kind of experiment: Cell proliferation assay (MTT). As to conditions: 48 h, inhibitor and unit not printed in table (MN58b, μM), read-out: IC50 48 h. It is filed as cell-based. Here is the method: All cell lines used in this study were maintained under standard conditions of temperature (37° C.), humidity (95%), and carbon dioxide (5%). Human primary bronchial epithelial cells, NHBE (BEC) (Cambrex, CC-2541) were grown in BEGM (Bronchial Epithelial cell growth media) BulletKit (Cambrex, CC-3170). Human primary mammary epithelial cells, HMEC (Clonetics, CC-2551) were grown in MEBM medium supplemented with a bullet kit (Clonetics, CC-3150). Epithelial non-small lung cancer cells H460 and H1299, and small cell lung cancer cell lines H510 and H82 were maintained in RPMI supplemented with 10% Fetal Bovine Serum (FBS) (Life Technologies, Grand Island, N.Y.).
Cells were seeded on 96-well plates (BD, Falcon, Bioscience, San Jose, Calif., USA) at a density of 6000 cells/well, and incubated for 24 h under standard conditions. […] Absorbance is read at 595 nm in a VersaMax Microplate Reader (Molecular Devices, Sunnyvale, Calif., USA). For sensitization with acid ceramidase inhibitor, cells were pre-treated 4 hours with the correspondent IC50 for NOE before treatment with ChoK inhibitors. NOE (N-Oleoyl ethanolamine) was obtained from Calbiochem (La Jolla, Calif., USA).

A further test has as its system DLD-1 cells. The test is described as follows: Apoptosis detection by flow cytometry, Annexin V & IP. It is filed as cell-based, human. As to conditions: DLD-1, 7 hours treatment. How it is done: Cell death was analysed by flow cytometry using de Aposcreen Annexin V Apoptosis Kit (Southern Biotech) according to manufacturer procedures. Cells were seeded at 4×10^5 cells per well in six-well. Twenty-four hours later, cells were treated with the indicated compounds. Cells were rinsed twice in cold PBS and after removing it cells were resuspended in cold 1× binding buffer to a concentration from 1×10^6 to 1×10^7 cells/mL. 100 μl of these cells were collected in a flow cytometry tube and 10 μl of Annexin V were added. After gently vortexing, tubes were incubated for 15 minutes on ice, protected from light. Without washing, 380 μl of 1× binding buffer were added to each sample prior to 10 μl of propidium iodine. Cells were immediately analysed by flow cytometry.
The synergism observed in vitro was also analysed by flow cytometry using Annexin V & IP staining to distinguish between apoptosis and necrosis or late apoptosis. […] When DLD-1 cells are treated with TRAIL alone there is a 35% of apoptosis. In combination tumour cell death is amplified up to 50%. When DLD-1 are treated with RSM-932A (TCD-717) in combination with TRAIL there is a 55% increase in tumour cell death but mainly the necrotic or late apoptosis population because RSM-932A (TCD-717) has an effect that is faster than MN58. […]

Test [2] concerns primary cultures of tumours of patients with NSCLC. The test is described as follows: Primary cultures of NSCLC tumours, crystal violet quantification. As to conditions: primary NSCLC tumour cultures, 0-20 μM, 10 days. The class given is cell-based, human. Here is the method: Resected tissues from NSCLC patients were dissociated (Cell dissociation sieve-tissued grinder Kit CD1, SIGMA), and the obtained cells were seeded in 24 well plates (BD, Falcon, Bioscience, San Jose, Calif., USA). […] The final persistent population in each well was quantified by the method of Cristal Violet as previously described (Rodríguez-González, A. et al., Oncogene, 22:8803-8812). […]

The test system of another test is DLD-1 colon cancer cells. As to the kind of experiment: QT-PCR validation of 5-FU metabolization pathway genes. The class given is cell-based, human. On the set-up: key: DR (Down-regulation); UR (Up-regulation). How it is done:
(§1) 1 μg of RNA was used to generate cDNA using High-Capacity cDNA Archive Kit (Applied Biosystems), and quantitative real-time PCR was carried out in triplicate using the ABI PRISM 7700 Sequence Detector (Applied Biosystems). GAPDH and 18S ribosomal mRNA were amplified as internal controls. Probes used for amplification were from Applied Biosystems as Taqman Gene Expression Assays (ASAH1: HS00602774—M1 Taqman Probe, ASAH2: HS00184096_M1 Taqman Probe and ASAH3: HS00370322_M1 Taqman Probe, DUT: HS00798995_S1 Taqman Probe, TYMS: HS00426591_M1 Taqman Probe, UPP1: HS00427695—M1 Taqman Probe, RRM2: HS00357247_G1 Taqman Probe). The 2-^ΔΔCt method was used (Livak K J., Methods. 2001; 25:402-8) to calculate the relative expression of each gene.

In the next test the test system is SW62 colon cancer cells. Described as above. The class given is cell-based, human. On the set-up: key: DR (Down-regulation); UR (Up-regulation). How it is done:
as §1

Another test has as its system HT29 colon cancer cells. Described as above. On the set-up: key: DR (Down-regulation); UR (Up-regulation). The class given is cell-based, human. How it is done: as §1

`CN(C)c1cc[n+](Cc2ccc(CCCCc3ccc(C[n+]4ccc(N(C)C)cc4)cc3)cc2)cc1` [MN58b, 1,4-(4-4′-Bis-((4-(dimethylamine)pyridinium-1-yl)methyl)diphenyl)butane dibromide]: in the test on H460 cells (H460, 9 h), the “DUT (Deoxyuridine triphosphatase) gene expression” value was −1.17, the “RRM2 (Ribonucleotide Reductase) gene expression” value was −1.48, the “TYMS (Thymidylate synthetase) gene expression” value is given as −1.30 and the “UPP1 (Uridine phosphorylase 1) gene expression” value is “+1.54”. In the test on H460 cells (H460, 24 h), the “DUT (Deoxyuridine triphosphatase) gene expression” value is −2.03, the “RRM2 (Ribonucleotide Reductase) gene expression” value is listed as −2.50, the “TYMS (Thymidylate synthetase) gene expression” value is −2.39 and the “UPP1 (Uridine phosphorylase 1) gene expression” value is given as “+1.76”. The IC 50 in test [1] was found to be 40.5 ± 6.2 µM. Besides, in the test with DLD-1 cells, the apoptosis result is “only a little increase in apoptosis”. In test [2], the “RESISTANT (number of samples)” value came out at 28 and the “SENSITIVES (number of samples)” value amounted to 35. Moreover, in the test with DLD-1 colon cancer cells, the TYM expression result is “DR” and the UPP expression result is “UR”. Further, in the test with SW62 colon cancer cells, the RRM expression entry is listed as “DR”, the TYM expression entry is recorded as “DR” and the UPP expression entry is “UR”. For the same compound, in the test on HT29 colon cancer cells, the DUT expression result is “DR”, the RRM expression entry is “DR” and the TYM expression result is reported as “DR”.
